{"source": "patent US20040191842A1", "about": "“Chemopreventive and therapeutic aspects of polyphenolic compositions and assays” (Medical College of Georgia Research Institute, Inc., priority 2002, published 2004)", "key": {"caspase 3": {"test_system": "caspase 3", "assay": "Caspase 3 activity assay, mammary epithelial cells", "assay_type": "cell-based, human", "settings": "100 μM EGCG, 24 hours", "description": "Caspase 3 activity assay. The Caspase 3 Apoptosis Detection Kit was purchased from Santa Cruz Biotech. Inc. In a 24 well tissue culture plate, 10^5 cells/well of control or treated cells in triplicates were plated. […] To each well, 100 μl of 2×reaction buffer was added with 10 mM DTT. Finally, 5 μl of DEVD-AFC substrate was added to each well containing cell lysates. The reaction mixtures were incubated for 1 hour at 37° C. The caspase 3 activity in each well was measured using a fluorescence plate reader set for 405 nanometer (nm) excitation and 505 nm emission."}, "MCF7 cells": {"test_system": "MCF7 cells", "assay": "MTT assay (mitochondrial SDH activity), MCF7 cells", "assay_type": "cell-based, human", "settings": "50 μM EGCG", "procedure": "MTT (3-(4,5-dimethylthiazol-2-yl)-2,5-diphenyl tetrazolium bromide) assay. This method detects the activity of mitochondrial succinate dehydrogenase (SDH). In a 96-well plate, 1.5×10^4 cells were seeded in each well. After variety of treatments, 100 μl of 2% MTT was added to each well and the plate was incubated at 37° C. for 30 minutes. 100 μl of 0.2 M Tris (pH 7.7) with 4% formalin was added to each well. After incubation at room temperature for 5 minutes, liquid was removed and the wells were allowed to dry. Each well was rinsed with 200 μl water followed by addition of 100 μl DMSO (6.35% 0.1 N NaOH in DMSO) to each well. The coloration was measured by a Thermo MAX microplate reader (Molecular Devices Corp. Sunnyvale, Calif. using wavelengths of 562 nm. Experiments were repeated three times with triplicate samples for each experiment."}, "NHEK [1]": {"test_system": "NHEK", "assay": "MTT assay (SDH activity), NHEK", "assay_type": "cell-based, human", "settings": "EGCG at various concentrations or 0.2 mg/ml GTP, 24 h", "from_the_text": "Succinate dehydrogenase activity assay (MTT assay)."}, "caspase 14": {"test_system": "caspase 14", "assay": "Apoptosis macroarray, caspase 14 mRNA in NHEK", "assay_type": "cell-based, human", "description": "(§1) To identify additional factors those suppress EGCG -induced apoptosis and facilitate cell differentiation in NHEK, exponentially growing NHEK (Cambrex, Baltimore, Md.) were exposed to 100 μM EGCG for 0, 2, 6 and 24 hours, prior to total RNA isolation using the Qiagen RNeasy mini kit (Valencia, Calif.), which was followed by RT-PCR labeling and hybridization with the Human Apoptosis Macroarray membrane (Sigma-Genosys, The Woodlands, Tex.). Total cell lysates also were collected following a variety of EGCG treatments. The protein levels for caspase 14 and p21 were determined by immuno-blotting using antibodies specific for caspase 14 and p21 (Santa Cruz Biotechnology, Santa Cruz, Calif.).\n(§2) Normal human epidermal keratinocytes (NHEK; Cambrex), and oral squamous cell carcinoma (OSC2) cells, originally from gingival tissue, were compared. Exponentially growing cells were exposed to 50 or 100 μM EGCG for 0 hours, 2 hours, 6 hours or 24 hours. Cells were harvested for total RNA, which was examined by apoptosis macroarrays (Sigma Genosys), followed by phosphorimagery and data analysis (GeneSpring). Protein production of expressed genes was confirmed by Western blotting of whole cell lysates."}, "SOD": {"test_system": "SOD", "assay": "SOD activity assay in cell lysates", "assay_type": "cell-based, human", "settings": "50 μM EGCG, 30 minutes; NHEK, OSC-2, OSC-4", "description": "(§3) Assays for SOD and catalase activities. Cells (1×10^6 cells/well) were incubated with or without EGCG (50 μM) in FilterCap 50 ml flasks (Nagel Nunc International, Rochester, N.Y.) for 30 minutes at 37° C. After the incubation, cells were harvested and disrupted in 100 μl of 10 mM Tris-HCl (pH 7.4) containing 0.1%(v/v) Triton X-100, 10 μg/ml leupeptin, 10 μg/ml pepstatin A and 100 mM phenylmethylsulfonyl fluoride by three cycles of freezing/thawing. After centrifugation at 17,000×g for 20 minutes at 4° C., the supernatants were used for SOD and catalase assays using the SOD Assay Kit-WST (Dojindo Molecular Technologies, Inc., Gaithersburg, Md.) and the AMPLEX Red Catalase Assay Kit (Molecular Probes), respectively. The activities of SOD and catalase were calibrated using a standard curve prepared with purified human SOD and catalase. The activities of SOD and catalase were expressed as units (U)/10^6 cells.\nAssays for SOD and catalase activities. Cells (10^5 cells/well) were incubated with or without EGCG (50 μM) in 24-well culture plates for desirable time periods at 37° C. After the incubation, cells were harvested and disrupted in 100 μl of 10 mM Tris-HCl (pH 7.4) containing 0.1% (v/v) Triton ×-100, 10 μg/ml leupeptin, 10 μg/ml pepstatin A and 100 mM PMSF by three cycles of freezing/thawing. […] The activities of SOD and catalase were expressed as units (U)/10^6 cells."}, "transglutaminase": {"test_system": "transglutaminase", "assay": "Transglutaminase activity assay, exponentially growing keratinocytes", "assay_type": "cell-based, human", "settings": "50 μM or 100 μM EGCG", "description": "Transglutaminase activity assay. Normal human epidermal keratinocytes in early passages (2-3) were allowed to grow in 6-well tissue culture plates prior to EGCG exposure. The cells were scraped in homogenization buffer (0.1 M Tris/acetate, pH 8.5, containing 0.2 mM EDTA, 20 μM AEBSF, 2 μg/mL aprotinin, 2 μM leupeptin and 1 μM pepstatin A), collected by centrifugation and subjected to one freeze-thaw cycle prior to lysis by sonication. Unlysed cells were pelleted by centrifugation and aliquots of the supernatant collected for the determination of transglutaminase activity and protein concentration. Protein quantities were determined using the BioRad Protein Assay with bovine serum albumin as standard. Transglutaminase activity was measured as the incorporation of [^3 H] putrescine into dimethylated casein, as described previously (Jung et al., J Invest Dermatol, 1998; 110:318-23)."}, "p21/WAF1": {"test_system": "p21/WAF1", "assay": "Apoptosis macroarray, p21/WAF1 mRNA in NHEK", "assay_type": "cell-based, human", "settings": "100 μM EGCG", "description": "as §1, §2"}, "[2]": {"test_system": "aged normal human primary epidermal keratinocytes", "assay": "BrdU incorporation assay, aged keratinocytes", "assay_type": "cell-based", "settings": "EGCG 15-50 μM, 15-day and 20-day keratinocytes", "description": "Culturing normal human epithelial cells. The pooled normal human primary epidermal keratinocytes were purchased from Cambrex (Baltimore, Md.) and sub-cultured in the specific growth media provided by the manufacturer (KGM-2). […] Exponentially growing keratinocytes were treated and harvested in their early passages (2-3 passages). […] Analysis of DNA synthesis using the BrdU incorporation method. The BrdU cell proliferation kit was purchased from Oncogene Research Products (Boston, Mass.). […] Experiments were repeated three times in triplicate for each experiment."}, "catalase": {"test_system": "catalase", "assay": "Catalase activity assay in cell lysates", "assay_type": "cell-based, human", "description": "as §3\nAssays for SOD and catalase activities. Cells (10^5 cells/well) were incubated with or without EGCG (50 μM) in 24-well culture plates for desirable time periods at 37° C. After the incubation, cells were harvested and disrupted in 100 μl of 10 mM Tris-HCl (pH 7.4) containing 0.1% (v/v) Triton ×-100, 10 μg/ml leupeptin, 10 μg/ml pepstatin A and 100 mM PMSF by three cycles of freezing/thawing. After centrifugation at 17,000×g for 20 minutes at 4° C., the supernatants were used for SOD and catalase assays using the SOD Assay Kit-WST (Molecular Technologies, Inc., Gaithersburg, Md.) and the Amplex Red Catalase Assay Kit (Molecular Probes), respectively. The activities of SOD and catalase were calibrated using a standard curve prepared with purified human SOD and catalase. The activities of SOD and catalase were expressed as units (U)/10^6 cells."}, "NHEK [3]": {"test_system": "NHEK", "assay": "Intracellular ROS levels (DFDA assay), NHEK", "assay_type": "cell-based, human", "settings": "EGCG 15-200 μM, up to 120 minutes", "description": "Measurement of intracellular ROS levels. The ROS assay measures the accumulation of intracellular ROS levels. The non-fluorescent dye DFDA passively diffuses into cells, where the acetates are cleaved by intracellular esterases. […] Thus, values of the fluorescence in the cell cultures are constantly rising in this assay. […] The intracellular ROS levels were measured by using a fluorescence plate reader (BIO-TEK FL600, Bio-Tek Instruments, Inc., Winooski, Vt.), at an excitation wavelength of 485 nm and an emission wavelength of 530 nm."}}, "note": "“Also recorded” adds a separate entry of the source."}
{"smiles": "O=C(O[C@@H]1Cc2c(O)cc(O)cc2O[C@@H]1c1cc(O)c(O)c(O)c1)c1cc(O)c(O)c(O)c1", "note": "[EGCG, (−)-epigallocatechin-3-gallate]", "values": [{"measurement": "increase in caspase 3 activity compared to control", "setting": "caspase 3", "value": 3, "unit": "fold"}, {"measurement": "mitochondrial SDH activities", "setting": "MCF7 cells", "value": "significantly decreased"}, {"measurement": "SDH activity (MTT assay)", "setting": "NHEK [1]", "value": "not significantly affected"}, {"measurement": "caspase 14 gene expression upregulated", "setting": "caspase 14; 100 μM EGCG (Example 10)", "value": "at least 2 fold"}, {"measurement": "caspase 14 mRNA expression above control", "setting": "caspase 14; 100 μM EGCG, 24 hours", "value": "approximately three"}, {"measurement": "SOD activity", "setting": "SOD", "value": "did not alter SOD activity"}, {"measurement": "transglutaminase activity vs control", "setting": "transglutaminase", "value": "significantly higher activity"}, {"measurement": "p21 mRNA level, of untreated control", "setting": "p21/WAF1; 2 hours", "value": 70.3, "unit": "%"}, {"measurement": "p21 mRNA level, of untreated control", "setting": "p21/WAF1; 6 hours", "value": 50.4, "unit": "%"}, {"measurement": "p21 mRNA level, of control", "setting": "p21/WAF1; 24 hours", "value": 32.7, "unit": "%"}, {"measurement": "BrdU incorporation", "setting": "[2]", "value": "slight negative impact on BrdU incorporation"}, {"measurement": "catalase activity", "setting": "catalase; 50 μM EGCG, 30 minutes, NHEK, OSC-2, OSC-4", "value": "Significant changes in catalase activity was not observed"}, {"measurement": "catalase activity in OSC-4 cells", "setting": "catalase; EGCG, 24-hour treatment period", "value": "slight decrease"}, {"measurement": "catalase and total SOD enzymatic activity levels", "setting": "catalase; EGCG, 24-hour treatment period, NHEK, OSC-2, OSC-4", "value": "had no effect on the enzymatic activity levels"}, {"measurement": "intracellular ROS levels", "setting": "NHEK [3]", "value": "significantly reduced immediately after the addition of EGCG; also recorded: reduce ROS to background levels"}]}
